Entries after “also recorded” stand apart in the source; their conditions may differ.
Experiments:
[1] = system: human iPSC derived cells (islet-like organoids, MCS, HILOs); assay: Glucose-stimulated insulin/c-peptide secretion assay (GSIS, ELISA); assay type: cell-based; settings: 3 mM vs 20 mM glucose
Description: Insulin release from intact islets was monitored using batch incubation methods as reported by E. Yoshihara et al., 2016, Cell metabolism, 23:622-634. Briefly, overnight-cultured, isolated pancreatic islets (RPMI-1640 medium supplemented with 10% (v/v) fetal bovine serum and 1% (v/v) Antibiotic-Antimycotic (Gibco)) were pre-cultured at 37° C. for 30 minutes in Krebs-Ringer bicarbonate buffer (KRBB) containing 129.4 mM NaCl, 3.7 mM KCl, 2.7 mM CaCl2), 1.3 mM KH2PO4, 1.3 mM MgSO4, 24.8 mM NaHCO3 (equilibrated with 5% CO2, 95% O2, pH 7.4), 10 mM HEPES and 0.2% (v/v) BSA (fraction V, Sigma) (KRBH) with 3 mM glucose). […] After 30 minutes, the islets were pelleted by centrifugation and secreted insulin levels were determined in the medium by Enzyme Linked Immunosorbent Assay (ELISA), (Rat/mouse Insulin ELISA KIT (Millipore) and Human Insulin ELISA KIT or ultrasensitive human c-peptide ELISA Kit (Millipore) for mouse and human islets, respectively). […] After 30 minutes, the cells were pelleted by centrifugation and c-peptide levels were determined in the supernatant medium using the human c-peptide ELISA KIT (Millipore). […]
Insulin release from intact islets was monitored using batch incubation methods (Yoshihara et al., 2010, Nat. Commun. 1:127). […] After 30 min, the cells were pelleted by centrifugation and c-peptide levels were determined by human c-peptide ELISA KIT (Millipore).

INS-1 cells = assay: Proinsulin-NanoLuc Gaussia luciferase insulin secretion assay in INS-1 cells; assay type: cell-based, rat; settings: 20 mM glucose with Exendin-4
Description: It was previously published that a reporter construct, in which the Gaussia luciferase is placed within the c-peptide portion of proinsulin accurately measures insulin secretion without affecting β-cell function (Burns et al., 2015, Cell metabolism, 21, 126-137). Using a lentiviral system, INS-1 cells stably expressing this Gaussia luciferase were generated. Luciferase secretion from INS-1 cells stably expressing Proinsulin-NanoLuc increased with high-glucose (20 mM), high glucose with Exendin-4 (G20 mM+Ex4), and the depolarizing agent, potassium chloride, confirming the utility of this reporter system. Next, the usefulness of this reporter to measure insulin secretion in mouse or human islets transiently infected with the Proinsulin-NanoLuc reporter was evaluated. Luciferase secretion in response to 20 mM high glucose was detected in both transiently infected mouse and human islets were detected. Importantly, the assay sensitivity was sufficient that insulin secretion could be qualified at the level of single islets. […] (See, e.g., WO 2017/205511). […]

[2] = system: human islet-like organoids; assay: Proinsulin-NanoLuc Gaussia luciferase insulin secretion assay in single or pooled islets/organoids; assay type: cell-based; settings: pooled organoids (10 to 100 per assay)
From the text: Recent studies have reported the generation of insulin producing β-like cells from hESC and hiPSC capable of secreting insulin in response to glucose (Pagliuca et al., 2014, Cell, 159, 428-439; Rezania et al., 2014, Nature Biotechnology, 32(11):1121-33; Russ et al., 2015, FMBO Journal, 34:1759-1772). […] To date, efforts have focused on the independent generation of insulin producing β-like cells, glucagon producing α-like cells, and somatostatin producing 6-like cells from hPSC. However, these approaches lack the supporting cells important for regulation, such as mesenchymal cells, adipose cells, and vasculature cells. Since the 3D structure of islets naturally enhances their function, these missing cellular components may compromise the functionality of islet-like cells clusters. […] To test this idea, single organoid proinsulin secretion assays were performed. Human islet-like organoids generated by methods described herein are morphologically identical with human islet.
Mouse islets, human islets and human islets like organoids were plated in their respective growth media with 10 μg/ml Polybrene® polymer (Santacruz). Viruses were then added. After overnight culture, cells were placed in fresh growth media. […]

[3] = system: chromatin accessibility in HILO cells; assay: ATAC-Seq chromatin accessibility in HILOs; assay type: cell-based, human
From the text: […] D. Buenrostro et al., 2015, Current Protocols in Molecular Biology, 109:21-29. Reads were aligned by Bowtie to hg19, and peaks were called by HOMER using default settings. Differential peaks and motif analyses from 2 biological duplicates were identified using HOMER essentially as instructed (see, e.g., S. Heinz et al., 2010, J. Mol. Cell, 38:576-589). Detailed methods for HOMER are freely available, e.g., at http://http://homer.salk.edu/homer/. Briefly, the program searches against the target and background sequences for enrichment of known motifs, and returns motifs enriched with a threshold of 1.5-fold change and a p-value of less than 0.05. Promoter regions, defined as 1 kilobase (kB) upstream from the transcription start site, of genes with enhanced chromatin accessibility upon Wnt4 treatment, were interrogated for enriched motifs of 8-16 bp using HOMER motif analysis.

[4] = system: PD-L1 expression in wHILOs; assay: PD-L1 induction by IFNγ in wHILOs; assay type: cell-based, human
Description: For acute treatment, wHILOs were treated with 10 ng/ml IFNγ in the differentiation medium (S5 with 10 μM Trolox, 2 μM R428, 1 mM N-acetyl cysteine, 10 μM Alk5 inhibitor II, 1 μM T3 and 100 ng/ml rhWnt4 (recombinant human Wnt4)) for 2 hours. Cells were then washed twice with PBS prior to culturing in differentiation medium (S5 with 10 μM Trolox, 2 μM R428, 1 mM N-acetyl cysteine, 10 μM Alk5 inhibitor II, 1 μM T3 and 100 ng/ml rhWnt4) (single pulse stimulation). IFNγ exposure was repeated 3 times with washing and 24 hours resting time in differentiation medium (S5 with 10 μM Trolox, 2 μM R428, 1 mM N-acetyl cysteine, 10 μM Alk5 inhibitor II, 1 μM T3 and 100 ng/ml rhWnt4) between each IFNγ exposure (MPS stimulation) to generate wHILO^ie. After the final IFNγ pulse, cells were cultured in the tissue culture incubator for a week prior to the RNA-seq analyses (FIGS. 14A-14C), ATAC-seq analyses (FIG. 14D) and transplantation into STZ-induced diabetic C57BL6J mice (FIG. 5J) or humanized mice (FIG. 15B).
Total RNA was extracted using TRIzol reagent (Invitrogen) and RNeasy KIT (Qiagen). Reverse transcription was performed with a SuperScript III First-Strand Synthesis System kit (Invitrogen) or PrimeScript RT reagent kit (TAKARA). Real time quantitative RT-PCR (qPCR) was performed using SYBR Green (Bio-Rad).

[5] = system: PD-L1 expression in human islets; assay: PD-L1 induction by IFNγ in human islets; assay type: cell-based; settings: 12 hours after IFNγ treatment (FIG. 12F)
CD80 (B7-1) = molecular target: T1, CD80 (B7-1) (Homo sapiens, UniProt P33681); settings: cited from earlier work
T1 sequence (P33681 35-288): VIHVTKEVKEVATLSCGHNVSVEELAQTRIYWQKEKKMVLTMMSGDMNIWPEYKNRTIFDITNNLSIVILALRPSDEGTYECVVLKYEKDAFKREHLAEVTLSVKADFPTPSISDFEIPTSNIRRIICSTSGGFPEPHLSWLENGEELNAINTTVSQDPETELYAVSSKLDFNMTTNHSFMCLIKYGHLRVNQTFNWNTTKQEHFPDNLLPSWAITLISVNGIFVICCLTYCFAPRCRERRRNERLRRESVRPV

PD-1 = PD-1 (Homo sapiens, UniProt Q15116); settings: read-out: Kd (dissociation constant), binding to PD-1; cited from earlier work
CD86 (B7-2) = molecular target: T2, CD86 (B7-2) (Homo sapiens, UniProt P42081); settings: cited from earlier work
T2 sequence (P42081 24-329): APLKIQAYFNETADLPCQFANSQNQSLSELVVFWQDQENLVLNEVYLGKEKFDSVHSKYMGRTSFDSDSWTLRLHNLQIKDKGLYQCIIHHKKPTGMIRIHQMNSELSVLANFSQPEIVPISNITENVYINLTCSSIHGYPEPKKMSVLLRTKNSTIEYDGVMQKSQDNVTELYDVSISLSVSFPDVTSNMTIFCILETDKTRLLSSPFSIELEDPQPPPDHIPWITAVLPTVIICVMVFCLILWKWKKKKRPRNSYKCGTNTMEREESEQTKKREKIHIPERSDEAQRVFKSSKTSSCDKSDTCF

[6] = system: human islet-like organoids; assay: Amyloid polypeptide (hIAPP) toxicity in human islet-like organoids; assay type: cell-based; settings: 24 hours
From the text: The generation of functional human organs according to methods described herein provides new strategies for drug-screening and disease modeling. Specifically, functional organoids can be used as models of type 2 diabetes for drug screening.

Chain of PD-1 (Q15116 25-288): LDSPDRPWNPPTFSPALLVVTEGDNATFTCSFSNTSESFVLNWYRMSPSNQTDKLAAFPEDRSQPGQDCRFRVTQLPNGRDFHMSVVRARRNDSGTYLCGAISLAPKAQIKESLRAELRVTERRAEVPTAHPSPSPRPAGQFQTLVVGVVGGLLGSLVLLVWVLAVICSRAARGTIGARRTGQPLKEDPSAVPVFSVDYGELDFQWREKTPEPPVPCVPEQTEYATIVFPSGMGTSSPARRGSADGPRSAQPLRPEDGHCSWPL

Oc1nc(-c2ccc(C(F)(F)F)cc2)nc2c1CSCC2 [XAV939, reference compound]
glucose-stimulated insulin (c-peptide) secretion in vitro [1]: not blocked

Exendin-4
luciferase secretion (insulin secretion reporter) (INS-1 cells): increased

GLP-1: incretin used for co-stimulation of insulin secretion
GSIS by proinsulin luciferase secretion assay [2]: enhanced GSIS

IFNγ: recombinant human IFNγ (R&D Systems, 285-IF) used to induce PD-L1 expression
chromatin accessibility at PD-L1, IRF9, JUNB, JUND loci ([3]; after MPS IFNγ treatment): persistent increases | chromatin accessibility at IRF1, STAT1 ([3]; after acute (12 h) IFNγ treatment): not sustained | duration of sustained PD-L1 expression after MPS ([4]; at least 3 pulses, 10 ng/ml, 2 hours per pulse): at least 7 days | PD-L1 expression after repeated short IFNγ exposures (MPS) (in words) ([4]; multiple pulse stimulation): high levels of PD-L1 protein expression; also recorded: sustained PD-L1 expression | PD-L1 induction after single IFNγ exposure (in words) ([4]; single / acute exposure): rapidly and robustly induced; also recorded: maximum PD-L1 induction; also recorded: transient | GSIS functionality after MPS IFNγ ([1]; wHILOs): not compromised | increase in PD-L1 expression [5]: approximately 20 fold

PD-L2: related molecule that shares PD-1 as a receptor
affinity for CD80 (in words) (CD80 (B7-1)): does not have affinity | Kd (PD-1): 140 nM | affinity for CD86 (in words) (CD86 (B7-2)): does not have affinity

hIAPP: amyloid polypeptide, an inducer of β cell loss in type 2 diabetic patients (KCNTATCATQRLANFLVHSSNNFGAILSSTNVGSNTY; Islet amyloid polypeptide; UniProt P10997 34-70, looked up)
cell cycle arrest [6]: dose-dependently induced G0/G1 arrest
